Measured values as given in patent US20260374818A1, “CATIONIC PEPTIDES WITH BROAD SPECTRUM ACTIVITY” (priority 2023, published 2026).
In brackets after ≈: the same amount, converted by molar mass. Where a SMILES comes first, the peptide text is derived from it. [ ]: non-standard residue; d: D form.

Assays:
MRSA USA 300 = test: MIC (broth microdilution) of peptides, MRSA; type: cell-based, methicillin resistant Staphylococcus aureus; conditions: MRSA USA300; mode of three biological replicates
Experimental: (§1) Minimal inhibitory concentration (MIC) against planktonic bacteria: The MIC of the synthetic peptides was determined in Mueller-Hinton broth (MHB) using the broth microdilution method described previously [Wiegand, I., Hilpert, K., & Hancock, R. E. (2008). Agar and broth dilution methods to determine the minimal inhibitory concentration (MIC) of antimicrobial substances. Nature Protocols, 3(2), 163-175]. Briefly, 10 μl of a 10× concentrated peptide solution was placed in the bottom of a well in a 96-well polypropylene round bottom plate (Corning Inc.). A bacterial suspension of ~5×10^5 CFU/ml was prepared from an overnight culture and 90 μl of this was added to each well. […] Bacteria tested included P. aeruginosa PAO1, MRSA USA300 LAC, Staphylococcus haemolyticus, Staphylococcus epidermidis, Klebsiella pneumoniae and Streptococcus salivarius.
(§2) Finally, the AB103-D derivatives that were the least aggregation prone and which produced the lowest toxic effects in vivo were evaluated for their direct antibacterial activity towards several pathogens of clinical relevance using a standard minimum inhibitory concentration (MIC) assay [Wiegand, I., Hilpert, K., & Hancock, R. E. (2008). Agar and broth dilution methods to determine the minimal inhibitory concentration (MIC) of antimicrobial substances. Nature Protocols, 3(2), 163-175]. Specifically, peptides AB110-D, AB111-D, AB114-D and AB115-D were tested against P. aeruginosa PAO1, MRSA USA 300, Staphylococcus haemolyticus, Staphylococcus epidermidis, Klebsiella pneumoniae and Streptococcus salivarius and compared against the antibacterial activity of DJK-5 and AB103-D (Table 7). Overall, the antibacterial potency of all of the AB103-D derivatives was stronger than that seen for DJK-5, particularly in the case of the Gram-negative pathogens P. aeruginosa and K. pneumoniae. […]

[1] = system: P. aeruginosa PAO1 biofilms; conditions: P. aeruginosa PAO1 biofilms; >95% pure peptides; crystal violet; BM2 minimal media
[2] = Subdermal murine toxicity model; conditions: for Average cyst size compared to DJK-5: 16 hours after administration, 4 mg/kg
Experimental: FIGS. 14A-14B show murine subdermal toxicity assessment of AB103-D derived peptides. Clinical scores were recorded for each peptide treated mouse one hour after peptide administration (FIG. 14A). […] The presence of a cyst or lesion was recorded 16 hours after peptide administration and the size of the cyst was measured using calipers (FIG. 14B). Data shown are the mean of two independent replicates at a peptide dose of 4 mg/kg.
Subdermal murine toxicity model: A subdermal toxicity mouse model was used to evaluate whether peptides induced localized toxicity of treated cutaneous tissue. Mice were anesthetized with 2.5-3% isoflurane and their fur was removed by shaving followed by application of a chemical depilatory. […] Mice were visually assessed and received clinical scores for a battery of signs or symptoms (activity/behaviour change, appearance/grooming, hydration, pain, cyst formation), for which a score of zero was given to animals that appeared normal. Animals were weighed and clinical scores were totalled. Following an overnight (16 h) incubation, mice were scored and weighed then euthanized with CO2 followed by cervical dislocation. Mice were imaged and cysts (swollen, inflamed tissue) were measured using a caliper. Animal experiments were performed in accordance with the Canadian Council on Animal Care (CCAC) guidelines and were approved by the University of British Columbia Animal Care Committee. Female CD-1 mice were purchased from Charles River Laboratories, Inc. (Wilmington, MA). All mice were 8 weeks of age and weighed 25±5 g at the time of the experiment. Animals were group housed in cohorts of three to four littermates. Standard animal husbandry practices were employed.

P. aeruginosa PAO1 [3] = test: MIC (broth microdilution) of peptides, P. aeruginosa; type: cell-based, Pseudomonas aeruginosa; conditions: mode of three biological replicates
Experimental: as §1, §2

MRSA USA300 biofilms = test: Biofilm inhibition by >95% pure peptides (crystal violet), MRSA; type: cell-based, methicillin resistant Staphylococcus aureus; conditions: MRSA USA300 biofilms, >95% pure peptides, 10% TSB + 0.1% glucose
[4] = system: P. aeruginosa PAO1 biofilms; test: Biofilm inhibition by SPOT-synthesized AB103-D variants (crystal violet), P. aeruginosa; type: cell-based, Pseudomonas aeruginosa; conditions: P. aeruginosa PAO1, SPOT peptides
[5] = system: Staphylococcus haemolyticus; test: MIC (broth microdilution) of peptides, S. haemolyticus; type: cell-based; conditions: mode of three biological replicates
Experimental: as §1, §2

Klebsiella pneumoniae = test: MIC (broth microdilution) of peptides, K. pneumoniae; type: cell-based; conditions: mode of three biological replicates
Experimental: as §1, §2

Streptococcus salivarius = test: MIC (broth microdilution) of peptides, S. salivarius; type: cell-based; conditions: mode of three biological replicates
Experimental: as §1, §2

[6] = system: Staphylococcus epidermidis; test: MIC (broth microdilution) of peptides, S. epidermidis; type: cell-based; conditions: mode of three biological replicates
Experimental: as §1, §2

P. aeruginosa PAO1 [7] = test: Biofilm inhibition (at least 80%), P. aeruginosa; type: cell-based, Pseudomonas aeruginosa; conditions: n = 4, BM2 minimal media, 18-24 hours, crystal violet
E. coli O157:H7 = test: Biofilm inhibition (at least 80%), E. coli; type: cell-based, Escherichia coli; conditions: n = 3, BM2 minimal media, 18-24 hours, crystal violet
[8] = system: Acinetobacter baumannii Ab5075; test: Biofilm inhibition (at least 80%), A. baumannii; type: cell-based; conditions: n = 4, BM2 minimal media, 18-24 hours, crystal violet
MRSA USA300 = test: Biofilm inhibition (at least 80%), MRSA; type: cell-based, methicillin resistant Staphylococcus aureus; conditions: n = 4, 10% TSB + 0.1% glucose, 18-24 hours, crystal violet

Structure (SMILES) | MIC (MRSA USA 300) | minimum inhibitory concentration of peptide that inhibited at least 90% of biofilm growth (MBIC90) [1] | Average cyst size compared to DJK-5 [2] | MIC (P. aeruginosa PAO1 [3]) | minimum inhibitory concentration of peptide that inhibited at least 90% of biofilm growth (MBIC90) (MRSA USA300 biofilms) | Activity against PAO1 biofilms compared to AB103-D [4] | MIC [5] | MIC (Klebsiella pneumoniae) | Clinical score ([2]; 1 hour after subcutaneous administration, comparator DJK-5) | MIC (Streptococcus salivarius) | MIC [6] | Peptide/Antibiotic Concentration where at least 80% of biofilm growth was inhibited (P. aeruginosa PAO1 [7]) | Peptide/Antibiotic Concentration where at least 80% of biofilm growth was inhibited (E. coli O157:H7) | Peptide/Antibiotic Concentration where at least 80% of biofilm growth was inhibited [8] | Peptide/Antibiotic Concentration where at least 80% of biofilm growth was inhibited (MRSA USA300)
CC[C@@H](C)[C@@H](NC(=O)[C@@H](C)NC(=O)[C@@H](CCCNC(=N)N)NC(=O)[C@@H](Cc1c[nH]c2ccccc12)NC(=O)[C@@H](CCC(N)=O)NC(=O)[C@H](NC(=O)[C@@H](CCCNC(=N)N)NC(=O)[C@H](NC(=O)[C@@H](Cc1c[nH]c2ccccc12)NC(=O)[C@@H](CCCNC(=N)N)NC(=O)[C@H](NC(=O)[C@H](N)CCCNC(=N)N)C(C)C)[C@H](C)CC)C(C)C)C(N)=O [AB110-D, rvrwirvqwrai] (H-[dR][dV][dR][dW][dI][dR][dV][dQ][dW][dR][dA][dI]-NH2) | 0.8 µg/mL (≈ 0.488 µM) | 4 µM | smaller than those induced by DJK-5 | 2 µg/mL (≈ 1.22 µM) | 1 µM | activity superior to that of AB103-D | 0.8 µg/mL (≈ 0.488 µM) | – | – | – | – | – | – | – | –
CC[C@@H](C)[C@@H](NC(=O)[C@@H](C)NC(=O)[C@@H](CCCNC(=N)N)NC(=O)[C@@H](CC(C)C)NC(=O)[C@@H](CCC(N)=O)NC(=O)[C@H](NC(=O)[C@@H](CCCNC(=N)N)NC(=O)[C@H](NC(=O)[C@H](NC(=O)[C@@H](CCCNC(=N)N)NC(=O)[C@H](NC(=O)[C@H](N)CCCNC(=N)N)C(C)C)C(C)C)[C@H](C)CC)C(C)C)C(N)=O [AB115-D, rvrvirvqlrai] (H-[dR][dV][dR][dV][dI][dR][dV][dQ][dL][dR][dA][dI]-NH2) | 0.8 µg/mL (≈ 0.541 µM) | 8 µM | smaller than those induced by DJK-5 | 2 µg/mL (≈ 1.35 µM) | 1 µM | – | 0.8 µg/mL (≈ 0.541 µM) | 0.8 µg/mL (≈ 0.541 µM) | < 2 | 0.8 µg/mL (≈ 0.541 µM) | 0.8 µg/mL (≈ 0.541 µM) | – | – | – | –
CC[C@@H](C)[C@@H](NC(=O)[C@@H](C)NC(=O)[C@@H](CCCNC(=N)N)NC(=O)[C@@H](Cc1c[nH]c2ccccc12)NC(=O)[C@@H](CCC(N)=O)NC(=O)[C@H](NC(=O)[C@@H](CCCNC(=N)N)NC(=O)[C@H](NC(=O)[C@H](NC(=O)[C@H](NC(=O)[C@H](NC(=O)[C@H](N)CCCNC(=N)N)C(C)C)[C@H](C)CC)C(C)C)[C@H](C)CC)C(C)C)C(N)=O [AB116-D, rvivirvqwrai] (H-[dR][dV][dI][dV][dI][dR][dV][dQ][dW][dR][dA][dI]-NH2) | – | >16 µM | smaller than those induced by DJK-5 | – | 1 µM | activity superior to that of AB103-D | – | – | – | – | – | – | – | – | –
O=C(O)c1cn(C2CC2)c2cc(N3CCNCC3)c(F)cc2c1=O [CIP] | – | – | – | – | – | – | – | – | – | – | – | 0.125 µg/mL | 0.0625 µg/mL | 32 µg/mL | 8 µg/mL
